# From patent EP2593528B1, “LIQUID-C[…] WITH STABILIZER” (Merck Patent GmbH, priority 2010, dated 2012)
# Test: Liquid-crystalline properties of single compounds, determined at 10% in nematic host mixture ZLI-4792
# Type: physicochemical
# Conditions: 10% in host mixture ZLI-4792
# Protocol: Außerdem werden folgende Abkürzungen und Symbole verwendet: Vo Schwellenspannung, kapazitiv [V] bei 20°C, V10 optische Schwelle für 10 % relativen Kontrast [V] bei 20°C, ne außerordentlicher Brechungsindex bei 20°C und 589 nm, no ordentlicher Brechungsindex bei 20°C und 589 nm, Δn optische Anisotropie bei 20°C und 589 nm, ε⊥ dielektrische Suszeptibilität senkrecht zum Direktor bei 20°C und 1 kHz, ε∥ dielektrische Suszeptibilität parallel zum Direktor bei 20°C und 1 kHz, Δε dielektrische Anisotropie bei 20°C und 1 kHz, Kp., T(N,I) Klärpunkt [°C], γ1 Rotationsviskosität bei 20°C [mPa·s], K1 elastische Konstante, "splay"-Deformation bei 20°C [pN], K2 elastische Konstante, "twist"-Deformation bei 20°C [pN], K3 elastische Konstante, "bend"-Deformation bei 20°C [pN], LTS "low temperature stability" (Phase), bestimmt in Testzellen, ton Einschaltzeit [Transmissionsänderung von 10 % auf 90 %) bei 20 °C und definierter Operationsspannung, toff Ausschaltzeit [Transmissionsänderung von 90 % auf 10 %) bei 20 °C, RT Reaktionszeit (ton + toff) HR20 "voltage holding ratio" bei 20°C [%] und HR100 "voltage holding ratio" bei 100°C [%].
# Alle physikalischen Eigenschaften werden und wurden nach "Merck Liquid Crystals, Physical Properties of Liquid Crystals", Status Nov. 1997, Merck KGaA, Darmstadt, Deutschland bestimmt und gelten für eine Temperatur von 20°C und An wird bei 589 nm und Δε bei 1 kHz bestimmt, sofern nicht jeweils explizit anders angegeben.
# Die flüssigkristallinen Eigenschaften der Einzelverbindungen werden, soweit nicht anders angegeben, in der nematischen Wirtsmischung ZLI-4792 (kommerziell erhältlich von Merck KGaA, Darmstadt) bei einer Konzentration von 10% bestimmt.
compound,measurement,setting,value
"CCCc1ccc(-c2cc(F)c(-c3ccc(C)s3)c(F)c2)cc1 [PUS-3-1, 2-(3,5-Difluor-4'-propyl-biphenyl-4-yl)-5-methyl-thiophen]",Δε,dielectric anisotropy at 20°C and 1 kHz,"+3,1"
same,Δn,optical anisotropy at 20°C and 589 nm,"0,3055"
same,γ1,rotational viscosity at 20°C,102 mPa·s
